In general, melting point refers to the temperature of the solid-liquid transition.

This passage reports melting point results from a melting point compilation (Tetko et al.).

In turn, `Cc1nn2c(CO)c(C)nc2s1` came in with a melting point of 129 to 131 °C. The figure for `Cc1ccc(N2C(=O)CSC2=S)cc1` is 168 to 170 °C; for `Nc1nc(-c2ccccc2)c(-c2ccccc2)o1` it is 150 to 152 °C; for `COCc1ccc(C(=O)O)cc1OC` it is 164 to 166 °C.

Take `COc1cc([N+](=O)[O-])ccc1NC(=O)C(C)Cl` (configuration not stated): the melting point lay in the range of 85 to 87 °C.

As for `O=Cc1ccc(-c2ccncc2)cc1F`, the melting point was 107 to 109 °C. `Cc1cc(C(=O)CCl)c(C)n1-c1cccc(F)c1` yielded a melting point of 90 to 94 °C. On to `O=C(O)Cn1cc(C(F)(F)F)ccc1=O`, for which the melting point is 218 to 220 °C. The figure for `O=C(O)C1(c2cccc(Br)c2)CCOCC1` is 152 to 154 °C. Take `CCOC(=O)c1c(-c2ccc(OC)c(OC)c2)csc1N`: the melting point lay within 223 to 225 °C. In turn, `CC(=O)c1c(C)nn(-c2ccccc2)c1C` returned a melting point of 60 to 62 °C.

Molecule `NC(=NO)c1ccc2c(c1)CCO2` gave a melting point of 215 to 217 °C. The figure for `O=C(O)C=Cc1cccc(CO)c1` is 129 to 131 °C. With `Nc1c(-c2ccccc2)nn(-c2ccccc2)c1N`, the melting point was in the range of 89 to 91 °C.

In the case of `Cc1[nH]ncc1CNc1ccc(O)cc1`, the melting point fell in the range of 150 to 152 °C. Take `O=C(O)c1cnc(Cc2ccc(F)cc2)s1`: the melting point fell in the range of 178 to 180 °C. In turn, `CC(C)(C)C(N)=NO` returned a melting point of 93 to 95 °C.

`CC(C)N1CCCC(Br)C1=O` (configuration not stated): the melting point lay within 52 to 54 °C.

As for `O=C1CCC(c2ccc(F)cc2)=NN1`, the melting point lay in the range of 193 to 195 °C. `CCOc1ccc(-c2nnc(SC(F)F)n2CCC(=O)O)cc1` had a melting point of 198 to 200 °C.

`O=Cc1cnc(-c2ccc(Cl)cc2)nc1` gave a melting point of 183 to 185 °C. Turning to `O=[N+]([O-])c1ccc2oc(S)nc2c1`, the melting point fell in the range of 241 to 243 °C. `CN(C(=O)CCl)C1(C#N)CCCCC1` had a melting point of 86 to 90 °C. `Cc1[nH]c2ccccc2c1C(=O)C(=O)O` gave a melting point of 199 to 201 °C.

Regarding `O=C(O)CCc1nnc(C2CCCC2)o1`, the melting point was 62 to 64 °C. `CS(=O)(=O)c1cc(Cl)c(C(=O)O)c(Cl)c1`: the melting point was 144 to 146 °C. On to `C/C(CC(=O)c1ccccc1)=N\c1ccccc1`, for which the melting point was 110 to 112 °C. The molecule `O=c1[nH]c(-c2ccncc2)cs1` had a melting point of 303 to 305 °C. The figure for `CNC(=S)NCc1ccco1` is 74 to 76 °C. Turning to `O=S1(=O)CCC(CO)CC1`, the melting point was in the range of 86 to 88 °C. Take `O=[N+]([O-])c1ccc2c(c1)CCCN2`: the melting point was 155 to 157 °C.

The molecule `Fc1ccc(-n2c(S)nc3ccccc32)c(F)c1` came in with a melting point of 191 to 193 °C.

Take `O=C(Nc1sccc1C(=O)O)c1ccc(Cl)cc1O`: the melting point was in the range of 244 to 246 °C. As for `Nc1c(NCC2CCCO2)c(=O)[nH]c(=O)n1Cc1ccccc1` (configuration not stated), the melting point was 221 to 223 °C. The same measure for `Cc1ccc(-c2nc(C)c(C(C)O)s2)cc1` (configuration not stated): 111 to 113 °C; for `Nc1nc2ncccn2n1`: 185 to 187 °C; for `CNCC1CCN(c2ccncc2)CC1`: 65 to 67 °C. `CSc1cc(C(=O)O)ccc1F` showed a melting point of 189 to 191 °C.

For `CC(C)Cc1csc2nc(CC#N)[nH]c(=O)c12`, the melting point was 218 to 220 °C. The figure for `COc1cccc(-n2ccnc2S)c1` is 149 to 151 °C. As to `CC(C)COC(C)C(N)=NO` (configuration not stated), the melting point was 63 to 65 °C. `Cc1ccccc1C(=O)C=O` gave a melting point of 63 to 65 °C. For `COc1ccc(Cl)cc1NC(=O)CCl`, the melting point fell in the range of 101 to 103 °C. `N#Cc1cccc(-n2ccnc2)c1` yielded a melting point of 161 to 163 °C. The figure for `O=C(O)c1cc(S(=O)(=O)Cl)c(Br)cc1Br` is 185 to 187 °C; for `NNC(=O)C1CCC1` it is 91 to 93 °C; for `CC(C)C(C(=O)O)N1CCCC1=O` (configuration not stated) it is 130 to 132 °C.

As for `CCc1cccc(C)c1Nc1nnc(S)s1`, the melting point lay within 155 to 157 °C. The same measure for `O=C(Nc1cnccn1)c1ccc(I)cc1`: 196 to 198 °C; for `CS(=O)(=O)Cc1noc(CCl)n1`: 73 to 75 °C; for `COC(=O)Cc1ccc([N+](=O)[O-])s1`: 50 to 52 °C. The same measure for `O=C(O)c1cc2c(Cl)c(Cl)ccc2[nH]1`: 281 to 283 °C. The same measure for `NNC(=O)CCc1ccccc1O`: 166 to 168 °C; for `O=S(=O)(c1ccc(CBr)cc1)C(F)F`: 57 to 61 °C. On to `Cc1cc(F)ccc1-c1ccc(C(=O)O)cc1F`, for which the melting point is 189 to 191 °C. The figure for `Cc1n[nH]c(-c2ccccc2I)n1` is 154 to 156 °C. `CC1CC(=O)NC1=O` (configuration not stated) yielded a melting point of 61 to 63 °C. In the case of `O=C(CCl)ONc1nc2ccccc2[nH]c1=O`, the melting point was 187 to 189 °C.

Molecule `CC(C)(C)c1ccc(-c2nnc(S)n2N)cc1` had a melting point of 105 to 106 °C. Regarding `O=C(CN=C=S)NC1CC1`, the melting point lay in the range of 169 to 171 °C. Molecule `O=C1CC(NC(=O)C(F)(F)F)c2ccccc21` (configuration not stated) yielded a melting point of 149 to 151 °C. For the molecule `COCCNS(=O)(=O)c1ccc(N)cc1`, the melting point was 83 to 85 °C. The molecule `N#Cc1ccnc(OCc2ccccc2)c1` showed a melting point of 74 to 76 °C. Consider `O=C1OCCN1S(=O)(=O)Cl`, for which the melting point lay within 94 to 96 °C. The figure for `O=C1CNC2CCCCC2N1` (configuration not stated) is 121 to 123 °C. In turn, `COC(=O)c1cccc(S(N)(=O)=O)c1` registered a melting point of 131 to 133 °C. On to `NCC(O)c1ccc2ccccc2c1` (configuration not stated), for which the melting point fell in the range of 115 to 117 °C.

`Nc1nc(-c2ccc([N+](=O)[O-])cc2)n[nH]1` yielded a melting point of 278 to 280 °C. `N#Cc1cccc(OCC(=O)O)c1` had a melting point of 123 to 125 °C.

Regarding `O=C(O)c1cccc(NC(=O)C2Cc3ccccc3O2)c1` (configuration not stated), the melting point was 252 to 254 °C. The same measure for `CCOC(=O)c1cnc2cc(Br)ccc2c1O`: 329 to 331 °C.

`NC(Cc1ccccn1)=NO` registered a melting point of 105 to 107 °C. Molecule `CS(=O)(=O)c1ccccc1NC(=O)CCl` yielded a melting point of 118 to 120 °C. The same measure for `CC(C)OC(=O)c1ccnc(O)c1`: 145 to 147 °C; for `COC(=O)c1c(F)cccc1S(=O)(=O)Cl`: 46 to 48 °C; for `CCc1ccc(C(N)=S)cc1`: 47 to 51 °C.

`CCOc1cc(/C=C(\C(=O)O)c2ccccc2)ccc1O` returned a melting point of 186 to 188 °C. On to `CC(=O)c1c(O)cc(C)oc1=O`, for which the melting point is 109 to 111 °C. The molecule `O=C(O)c1cnn(-c2ccc(Cl)nn2)c1C(F)(F)F` showed a melting point of 99 to 101 °C. Regarding `CC1CC1C(=O)NN` (configuration not stated), the melting point is 85 to 87 °C. Molecule `Clc1cc(NCC2CC2)ncn1` showed a melting point of 98 to 100 °C.

The molecule `COc1ccc(Cn2ncc3cc(C(=O)O)cnc32)c(OC)c1` yielded a melting point of 205 to 207 °C.

Regarding `Cc1ccc(C#N)c(OC2CCCC2)c1`, the melting point was 66 to 68 °C.

Molecule `Cc1cc(C)nc(-n2nc(C)cc2N)n1` returned a melting point of 173 to 175 °C. `Nc1cc(-c2ccc(F)cc2F)no1` registered a melting point of 110 to 112 °C. Turning to `O=S1(=O)CCC(Br)CC1`, the melting point lay within 127 to 129 °C. In the case of `NC(=O)c1cc2ccccc2c(Cl)n1`, the melting point was in the range of 264 to 266 °C. Consider `O=C(c1cccc(F)c1)N1CCCNCC1`, for which the melting point lay in the range of 49 to 51 °C.

In turn, `NC(=O)c1cnn2c(C(=O)O)ccnc12` gave a melting point of 199 to 201 °C. As to `O=S(=O)(c1ccc(S)nc1)N1CCN(Cc2ccccc2)CC1`, the melting point was 169 to 171 °C. On to `O=C(O)c1cc(-c2ccc(Cl)cc2)nc2ccccc12`, for which the melting point fell in the range of 244 to 246 °C. On to `O=C(O)c1c(Cl)cccc1Oc1ccc(Cl)cc1`, for which the melting point lay in the range of 109 to 111 °C. Molecule `N#Cc1ccc(Cl)cc1[N+](=O)[O-]` showed a melting point of 95 to 100 °C. The molecule `O=C(CCl)NC1CCS(=O)(=O)C1` (configuration not stated) came in with a melting point of 89 to 98 °C. Consider `Nc1ccc(N2C(=O)c3ccccc3C2=O)c(Cl)c1`, for which the melting point fell in the range of 204 to 206 °C.

With `O=C(O)c1c[nH]c2cc(F)ccc12`, the melting point was in the range of 228 to 230 °C. In turn, `CN1C(=O)CC(CO)C1c1cccc(Cl)c1` (configuration not stated) came in with a melting point of 101 to 103 °C. The same measure for `O=C(O)C=CC1CCOCC1`: 134 to 136 °C; for `O=C(O)c1ccc(Oc2ccc(F)cc2[N+](=O)[O-])c(Cl)c1`: 155 to 157 °C. The same measure for `Nc1cccc2oc(C(F)(F)F)nc12`: 49 to 51 °C; for `Cc1noc(S)n1`: 123 to 125 °C. The molecule `NC(=O)c1ccc(N2CCCCC2)c(N)c1` displayed a melting point of 168 to 170 °C. `OC1CCCCC1c1ccc(F)cc1` (configuration not stated) gave a melting point of 71 to 73 °C. The same measure for `COc1ccc(C(=O)Nc2cccc(C=O)c2)cc1`: 128 to 130 °C; for `COC(=O)N1CCc2ccccc21`: 72 to 74 °C. Consider `O=C(NC1CCN(Cc2ccccc2)CC1)c1ccco1`, for which the melting point lay in the range of 158 to 160 °C. For `CC(NO)c1ccc(F)cc1` (configuration not stated), the melting point lay within 74 to 76 °C. The figure for `O=S(=O)(Cl)c1ccc(S(=O)(=O)C(F)F)cc1` is 139 to 141 °C; for `CCc1sc(N)nc1-c1ccc(OC)cc1` it is 112 to 114 °C; for `O=C(O)c1ccccc1C(=O)N1CCCC1` it is 131 to 133 °C. Consider `CCOCCN1C(=O)C(=O)c2ccccc21`, for which the melting point lay within 65 to 67 °C. The figure for `Cn1cnnc1-c1cncc(O)c1` is 266 to 268 °C; for `O=C1CCOc2c(Br)cccc21` it is 62 to 64 °C; for `Cc1nc(-c2ccsc2)sc1C(=O)O` it is 235 to 237 °C.

Consider `CN(C)C(=O)c1ccc(Cl)nn1`, for which the melting point is 137 to 139 °C. Molecule `O=c1ccn2ncnc2[nH]1` had a melting point of 282 to 284 °C. With `CC(NC(=O)c1cc(F)ccc1N)c1ccc(C#N)cc1` (configuration not stated), the melting point lay in the range of 139 to 141 °C. The same measure for `O=C1CC(c2ccccc2)=NN1`: 246 to 248 °C; for `Fc1ccc(NC(=NC2CC2)c2ccccc2)cc1`: 92 to 94 °C. Regarding `O=C(CCl)Nc1cc(F)ccc1F`, the melting point fell in the range of 118 to 120 °C.

`CN(C)C(=O)c1ccc(NC(=O)CCl)cc1` registered a melting point of 177 to 179 °C.

Regarding `COc1ccc(N2C(=O)CC(=O)NC2=S)cc1`, the melting point was in the range of 241 to 243 °C.
